Patent publication US20110152362A1, “METHODS OF TREATING EPILEPTOGENESIS AND EPILEPSY” (priority 2004, published 2011)
Marks after values point to notes of the source that are not given here.

Tested on: rats subjected to li-pilo SE
Experiment: Example 2: quantification of cell densities 14 days after li-pilo SE;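 note: Thionine-stained 20 µm brain sections, neurons with cell bodies above 10 µm counted, value is the mean of 12 fields per structure from three adjacent sections, both sides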
Details: 14 days after li-pilo SE

## NC(=O)OC[C@@H](O)c1ccccc1Cl [TC]
pilo-TC60 (TC 60 mg/kg)
  number of neuronal cell bodies: Cerebral cortex Entorhinal, layer III/IV, ventral: 16.5 ± 2.2
  number of neuronal cell bodies: Cerebral cortex Piriform, layer II, dorsal: 27.5 ± 2.8**°°
  number of neuronal cell bodies: Cerebral cortex Piriform, layer II, ventral: 13.7 ± 4.2
  number of neuronal cell bodies: Cerebral cortex Piriform, layer III: 6.4 ± 2.3
  number of neuronal cell bodies: Hippocampus CA1 area: 31.9 ± 44**°°
  number of neuronal cell bodies: Hippocampus CA3 area: 31.6 ± 1.4
  number of neuronal cell bodies: Hippocampus Hilus: 32.8 ± 3.3
  number of neuronal cell bodies: Thalamus Central medial: 83.7 ± 9.6
  number of neuronal cell bodies: Thalamus Dorsolateral, medial, dorsal: 77.5 ± 3.9**°°
  number of neuronal cell bodies: Thalamus Dorsolateral, ventral lateral: 56.7 ± 8.7
  number of neuronal cell bodies: Thalamus Mediodorsal central: 24.1 ± 1**^
  number of neuronal cell bodies: Thalamus Mediodorsal lateral: 18.9 ± 0.6
  number of neuronal cell bodies: Thalamus Mediodorsal medial: 19.1 ± 2.6
pilo-TC90 (TC 90 mg/kg)
  number of neuronal cell bodies: Amygdala Basolateral: 40.7 ± 1.6°°
  number of neuronal cell bodies: Amygdala Medial, dorsal anterior: 72.2 ± 5.7°°
  number of neuronal cell bodies: Amygdala Medial, ventral posterior: 30.7 ± 3.7°°
  number of neuronal cell bodies: Cerebral cortex Entorhinal, layer II, dorsal: 26.3 ± 0.9
  number of neuronal cell bodies: Cerebral cortex Entorhinal, layer II, ventral: 25.4 ± 1.1°^
  number of neuronal cell bodies: Cerebral cortex Entorhinal, layer III/IV, dorsal: 26.7 ± 0.8
  number of neuronal cell bodies: Cerebral cortex Entorhinal, layer III/IV, ventral: 23.7 ± 1.5°°
  number of neuronal cell bodies: Cerebral cortex Piriform, layer II, dorsal: 32.4 ± 1.1°°
  number of neuronal cell bodies: Cerebral cortex Piriform, layer II, ventral: 18.4 ± 4.0°°
  number of neuronal cell bodies: Cerebral cortex Piriform, layer III: 9 ± 3.0°°
  number of neuronal cell bodies: Hippocampus CA1 area: 47.7 ± 6.6*°
  number of neuronal cell bodies: Hippocampus CA3 area: 35.1 ± 2.9
  number of neuronal cell bodies: Hippocampus Hilus: 37.5 ± 3.1
  number of neuronal cell bodies: Thalamus Central medial: 88.2 ± 8.5^
  number of neuronal cell bodies: Thalamus Dorsolateral, medial, dorsal: 79.4 ± 3.1**°°
  number of neuronal cell bodies: Thalamus Dorsolateral, ventral lateral: 71.8 ± 5.3°°*
  number of neuronal cell bodies: Thalamus Mediodorsal central: 27.4 ± 1.5^
  number of neuronal cell bodies: Thalamus Mediodorsal lateral: 22 ± 1.2*°
  number of neuronal cell bodies: Thalamus Mediodorsal medial: 23.1 ± 2.8°°
pilo-TC120 (TC 120 mg/kg)
  number of neuronal cell bodies: Amygdala Basolateral: 42.7 ± 1.3°°
  number of neuronal cell bodies: Amygdala Medial, dorsal anterior: 80.2 ± 2.6°°
  number of neuronal cell bodies: Amygdala Medial, ventral posterior: 34.7 ± 1.7°°
  number of neuronal cell bodies: Cerebral cortex Entorhinal, layer II, dorsal: 27.3 ± 0.5°°
  number of neuronal cell bodies: Cerebral cortex Entorhinal, layer II, ventral: 25.1 ± 0.6^
  number of neuronal cell bodies: Cerebral cortex Entorhinal, layer III/IV, dorsal: 26.4 ± 0.7°°
  number of neuronal cell bodies: Cerebral cortex Entorhinal, layer III/IV, ventral: 24.5 ± 1.4°°
  number of neuronal cell bodies: Cerebral cortex Piriform, layer II, dorsal: 35.2 ± 1.1°°
  number of neuronal cell bodies: Cerebral cortex Piriform, layer II, ventral: 30.5 ± 1.3°°
  number of neuronal cell bodies: Cerebral cortex Piriform, layer III: 15 ± 2.2°°
  number of neuronal cell bodies: Hippocampus CA1 area: 65.5 ± 2.9°°
  number of neuronal cell bodies: Hippocampus CA3 area: 39.8 ± 1.5
  number of neuronal cell bodies: Hippocampus Hilus: 44.8 ± 2.9
  number of neuronal cell bodies: Thalamus Central medial: 108.2 ± 6.6° ^
  number of neuronal cell bodies: Thalamus Dorsolateral, medial, dorsal: 89.8 ± 3.7*°
  number of neuronal cell bodies: Thalamus Dorsolateral, ventral lateral: 79.0 ± 4.7°°
  number of neuronal cell bodies: Thalamus Mediodorsal central: 29.9 ± 1.7°^
  number of neuronal cell bodies: Thalamus Mediodorsal lateral: 24.4 ± 1.1°°
  number of neuronal cell bodies: Thalamus Mediodorsal medial: 28.6 ± 0.8°°
